Results from patent US20210283089A1, “Use of fumaric acid esters and pharmaceutically acceptable salts thereof in preparing pharmaceuticals for treating ferroptosis-related diseases” (XIANGYA HOSPITAL CENTRAL SOUTH UNIVERSITY, priority 2018, published 2021).
Structures can show the parent of a compound that is named as a salt.

What was measured:
[1] = system: GPX4 protein level of HepG2 and LO2 cells; experiment: Western Blot test 2: GPX4 protein level, DOX stimulation; type: cell-based, Human; conditions: 6 h
Method: The medium is DMEM medium (HyClone, SH30022.01) and RPMI medium (HyClone, SH30809.01) containing 10% fetal bovine serum (Gibco, 10091148) and 100 U/mL ampicillin+streptomycin double-antibody (Gibco, 10378016). The cell incubator conditions are 37° C., constant temperature and humidity, and constant carbon dioxide concentration of 5%. 10 μM of DOX, 10 μM DOX+10 μM dimethyl fumarate, 10 μM DOX+10 μM monomethyl fumarate, and 10 μM DOX+1 μM Ferrostatin-1 are respectively added to monolayer adherent hepatocytes HepG2 and LO2 cells. After being incubated for 6 h, the cells are gently rinsed with PBS buffer pre-cooled at 4° C. for 3 times, and then a total protein of the cells is extracted with RIPA lysate (Beyotime, P0013B). Specific operations are performed according to the instructions. After the concentration of the extracted protein is determined by BCA protein concentration determination kit (Beyotime, [MUT]), it is stored at -20° C. for later use. Each histone sample and 2×Loading Buffer are prepared at a volume ratio of 1:1, and placed in a metal bath at 100° C. to boil and denature for 10 min, then placed on ice to cool for 5 min, and a sample is waited to be loaded. Specific operations are performed according to the instructions. The test is repeated for three times.

[2] = system: mouse liver of hepatic fibrosis model; experiment: Inhibition test of ferroptosis in mouse liver of hepatic fibrosis model; type: in vivo, SD mice; conditions: 15 mg/Kg or 25 mg/Kg, intragastric, once a day, 8 weeks; versus model group
Method: 36 7-week-old SPF-grade SD mice of 200-250 g are randomly divided into 4 groups, namely a control group, a model group, a model+low-dose dimethyl fumarate (15 mg/Kg) group and a model+high-dose dimethyl fumarate (25 mg/Kg) group. In the model group, subcutaneous injection of 0.3 ml/100 g of 40% CCI4 peanut oil solution is used for modeling twice a week. It is started from the second week, 10% alcohol is used as the only beverage, the mice are fed with a corn meal feed mixed with 0.5% cholesterol, and modeling is continuously performed for 8 weeks. At the same time of modeling, the model+administration group are respectively given with dimethyl fumarate (15 mg/Kg) and dimethyl fumarate (25 mg/Kg) once a day by intragastric administration for 8 consecutive weeks. After that, the mice are anesthetized with 5% chloral hydrate in abdominal cavity, and the liver tissues are collected, partly fixed in formalin, and partly stored in liquid nitrogen. Then the following tests are separately performed (the dimethyl fumarate in the drawings of the description is represented by DMF):
(§1) A specific method is as follows: a mouse liver tissue sample fixed in 10% formalin is dehydrated, paraffin-immersed and embedded, and the paraffin-embedded tissue is sectioned. […]
(§2) A specific method is as follows: the paraffin-embedded tissue sections are baked in a constant temperature oven at 65° C. for 60 min to dissolve the paraffin, and then sequentially put in xylene to dewax and be transparent, and hydrated in ethanol solution with the concentrations from high to low. After the tissue sections are rinsed with PBS solution, a reagent A in a ready-to-use immunohistochemical hypersensitive UltraSensitive™ SP kit (Maixin Biotech Company, KIT-9707) is respectively added dropwise to remove an endogenous peroxidase from the tissues, and a reagent B is blocked by goat serum. […]

HepG2 cells = experiment: GSH and GSSG level determination test; type: cell-based, Human; conditions: 10 μM and 30 μM, incubated 20 h; concentration-dependent
Method: Human hepatocytes HepG2 and LO2 cells are obtained from the cell bank of Xiangya Hospital. The medium is DMEM medium (HyClone, SH30022.01) and RPMI medium (HyClone, SH30809.01) containing 10% fetal bovine serum (Gibco, 10091148) and 100 U/mL ampicillin+streptomycin double-antibody (Gibco, 10378016). The cell incubator conditions are 37° C., constant temperature and humidity, and constant carbon dioxide concentration of 5%. Monolayer adherent HepG2 cells are digested with a trypsin into single-cell suspension, and the cells are plated on a 96-well plate at 4000 cells/well. After the cells are adhered for 4-6 h, DMSO, 10 μM of dimethyl fumarate, 30 μM of dimethyl fumarate, 10 μM of monomethyl fumarate and 30 μM of monomethyl fumarate are respectively added to the cell culture plate, and incubated for 20 h, GSH/GSSG-Glo™ Assay Kit (Promega, V6611) is used to detect the total GSH and GSSH of the cells. Specific operations are performed according to the instructions, and the experiment is repeated for three times.

[3] = system: GPX4 protein level of HepG2 and LO2 cells; experiment: Western Blot test 1: GPX4 protein level, ethanol stimulation; type: cell-based, Human; conditions: 6 h
Method: Human hepatocytes HepG2 and LO2 cells are obtained from the cell bank of Xiangya Hospital. The medium is DMEM medium (HyClone, SH30022.01) and RPMI medium (HyClone, SH30809.01) containing 10% fetal bovine serum (Gibco, 10091148) and 100 U/mL ampicillin+streptomycin double-antibody (Gibco, 10378016). The cell incubator conditions are 37° C., constant temperature and humidity, and constant carbon dioxide concentration of 5%. […] After being incubated for 6 h, the cells are gently rinsed with PBS buffer pre-cooled at 4° C. for 3 times, and then extracted for total protein of the cells with RI PA lysate (Beyotime, P0013B). Specific operations are performed according to the instructions. After the concentration of the extracted protein is determined by BCA protein concentration determination kit (Beyotime, [MUT]), it is stored at -20° C. for later use. Each group of protein sample and 2×Loading Buffer is prepared at a volume ratio of 1:1, and placed in a metal bath at 100° C. to boil and denature for 10 min, then placed on ice to cool for 5 min, and a sample is waited to be loaded. Specific operations are performed according to the instructions. The test is repeated for three times.

[4] = system: mouse liver of alcoholic fatty liver disease model; experiment: Inhibition test of ferroptosis in mouse liver of alcoholic fatty liver disease model; type: in vivo, C57BL/6 male mice; conditions: 100 mg/Kg or 200 mg/Kg, intragastric, once a day, 10 consecutive days; versus model group
Method: 24 8-week-old SPF-grade C57BL/6 male mice are randomly divided into 4 groups, namely a blank group, a model group, a model+low-dose dimethyl fumarate (100 mg/Kg) group and a model+high-dose dimethyl fumarate (200 mg/Kg) group. The mice are let free to drink Lieber-DeCarli control diet for 5 days to gradually adapt to liquid diet and tube feeding. Subsequently, the model group is allowed to drink freely with 5% (volume/volume) standard Lieber-DeCarli alcohol liquid diet for 10 days, while the control group uses isocaloric control diet. From the 11-th day, the model+administration group is respectively administrated with dimethyl fumarate (100 mg/Kg) and dimethyl fumarate (200 mg/Kg) by intragastric administration once a day for 10 consecutive days. After that, the mice are anesthetized with 5% chloral hydrate in abdominal cavity, and liver tissues are collected, partly fixed in 10% formalin, and partly stored in liquid nitrogen. Then the following tests are separately performed (the dimethyl fumarate in the drawings of the description is represented by DMF):
as §1, §2

HepG2 and LO2 cells = experiment: Determination test of cell membrane lipid peroxidation level (MDA detection kit); type: cell-based, Human; conditions: 6 h; for cell membrane lipid peroxidation level (stimulus alone): 80 mM ethanol or 10 μM DOX alone
Method: Human hepatocytes HepG2 and LO2 cells are obtained from the cell bank of Xiangya Hospital. The medium is DMEM medium (HyClone, SH30022.01) and RPMI medium (HyClone, SH30809.01) containing 10% fetal bovine serum (Gibco, 10091148) and 100 U/mL ampicillin+streptomycin double-antibody (Gibco, 10378016). The cell incubator conditions are 37° C., constant temperature and humidity, and constant carbon dioxide concentration of 5%. DMSO, 1 μM of Erastin, 80 mM of ethanol, 10 μM of DOX, 10 μM DOX+10 μM dimethyl fumarate, 10 μM DOX+10 μM monomethyl fumarate, 10 μM DOX+1 μM Ferrostatin-1, 80 mM ethanol+10 μM dimethyl fumarate, 80 mM ethanol+10 μM monomethyl fumarate, and 80 mM ethanol+1 μM Ferrostatin-1 are respectively added to monolayer adherent hepatocytes HepG2 and LO2 cells. After being incubated for 6 h, the cells are gently rinsed with PBS buffer pre-cooled at 4° C. for 3 times, and every 1 million cells are homogenized with 0.1 mL of IP lysate (Beyotime, […]), and supernatant is collected after centrifugation at 4° C. The cell membrane lipid peroxidation level is measured by MDA detection kit (Beyotime, […]), specific operations are performed according to the instructions, and the test is repeated for three times.

[5] = 10 μM DOX + 10 μM test substance
[6] = 80 mM ethanol + 10 μM test substance

| Structure (SMILES) | GPX4 protein level of DOX-stimulated cells [1, 5] | liver 4-HNE protein level (immunohistochemistry) [2] | liver GPX4 protein level (immunohistochemistry) [2] | liver pathological changes (fatty degeneration, necrosis, periportal inflammation, fibrosis; H&E and Sirius Red staining) [2] | GSH level of the HepG2 cells (HepG2 cells) | GSSH level of the HepG2 cells (HepG2 cells) | GPX4 protein level of ethanol-stimulated cells [3, 6] | fatty degeneration of the hepatocytes and pericentral periphlebitis (H&E staining) [4] | liver 4-HNE protein level (immunohistochemistry) [4] | liver GPX4 protein level (immunohistochemistry, Western blot) [4] | cell membrane lipid peroxidation level caused by DOX (HepG2 and LO2 cells; [5]) | cell membrane lipid peroxidation level caused by ethanol (HepG2 and LO2 cells; [6]) | GPX4 protein level (ethanol alone) ([3]; 80 mM ethanol) | cell membrane lipid peroxidation level (stimulus alone) (HepG2 and LO2 cells) | GPX4 protein level (DOX alone) ([1]; 10 μM DOX) |
| --- | --- | --- | --- | --- | --- | --- | --- | --- | --- | --- | --- | --- | --- | --- | --- |
| COC(=O)/C=C/C(=O)OC [dimethyl fumarate, Dimethyl fumarate] | significantly up-regulate | significantly down-regulated | significantly up-regulated | significantly reduced | significantly up-regulate | significantly up-regulate | significantly up-regulate | significantly reduced | significantly down-regulated | significantly up-regulated | significantly inhibit | significantly inhibit |  |  |  |
| CCO [ethanol] |  |  |  |  |  |  |  |  |  |  |  |  | significantly down-regulate | significantly up-regulate |  |
| COc1cccc2c1C(=O)c1c(O)c3c(c(O)c1C2=O)C[C@@](O)(C(=O)CO)C[C@@H]3O[C@H]1C[C@H](N)[C@H](O)[C@H](C)O1 [DOX, doxorubicin] |  |  |  |  |  |  |  |  |  |  |  |  |  | significantly up-regulate | significantly down-regulate |
